Results published in ChEMBL document CHEMBL3879906 (2013).
Active and inactive are the calls of the source. The calls are words filed in the database; no cut-off is given here.

Key:
Cardiac muscle cell [1] = experiment: Increase in reverse rate-dependent action potential duration at 50% repolarization in human atrial myocytes at 0.5 to 2 Hz at 50 uM by whole cell patch clamp method; format: functional, cell-based
Cardiac muscle cell [2] = experiment: Increase in reverse rate-dependent action potential duration at 75% repolarization in human atrial myocytes at 0.5 to 2 Hz at 50 uM by whole cell patch clamp method; format: functional, cell-based
Cardiac muscle cell [3] = experiment: Increase in reverse rate-dependent action potential duration at 90% repolarization in human atrial myocytes at 0.5 to 2 Hz at 50 uM by whole cell patch clamp method; format: functional, cell-based
Cardiac muscle cell [4] = experiment: Increase in action potential duration at 75% repolarization in human atrial myocytes at 0.5 to 2 Hz at 10 uM by whole cell patch clamp method; format: functional, cell-based
Canis familiaris [5] = experiment: Anti-atrial fibrillation activity in anesthetized dog assessed as prolongation of effective refractory time period of left atrium at 200 to 250 ms of basic cycle length at 5 mg/kg administered intraduodenally measured after 1 to 4 hrs relative to vehicle-treated control; format: functional, Canis lupus familiaris
Canis familiaris [6] = experiment: Induction of QTc interval prolongation in anesthetized dog at 5 mg/kg administered intraduodenally after 1 to 4 hrs; format: organism-based, Canis lupus familiaris; settings: in vivo, other
Mus musculus [7] = experiment: Acute toxicity in Kunming mouse assessed as mortality at 0.3 g/kg, po administered every 1.5 hrs for 3 times measured for 2 weeks relative to vehicle-treated control; format: organism-based; settings: in vivo, 300 mg/kg, 336 h
Canis familiaris [8] = experiment: Anti-atrial fibrillation activity in bilateral vagal stimulated anesthetized dog assessed as time duration of atrial fibrillation at 100 ms of basic cycle length at 10 mg/kg administered intraduodenally; format: functional, Canis lupus familiaris
[9] = Effect on resting membrane potential in human atrial myocytes at 5 to 10 uM by whole cell patch clamp method; format: cell-based; settings: cardiac muscle cell
Cardiac muscle cell [10] = experiment: Prolongation of action potential duration in human atrial myocytes at 2 Hz at 5 to 10 uM by whole cell patch clamp method; format: functional, cell-based
[11] = molecular target: T1, Voltage-gated potassium channel, IKs; KCNQ1(Kv7.1)/KCNE1(MinK) (Homo sapiens, UniProt P51787+P15382); experiment: Inhibition of human KCNQ1/KCNE1 expressed in HEK293 cells assessed as recovery of current amplitude at 30 uM measured after compound washout by whole cell patch clamp method; format: cell-based; parameters: scale not given: the % may be the effect or the level left; settings: hek293, 30 µM
T1 sequence (P51787 whole entry): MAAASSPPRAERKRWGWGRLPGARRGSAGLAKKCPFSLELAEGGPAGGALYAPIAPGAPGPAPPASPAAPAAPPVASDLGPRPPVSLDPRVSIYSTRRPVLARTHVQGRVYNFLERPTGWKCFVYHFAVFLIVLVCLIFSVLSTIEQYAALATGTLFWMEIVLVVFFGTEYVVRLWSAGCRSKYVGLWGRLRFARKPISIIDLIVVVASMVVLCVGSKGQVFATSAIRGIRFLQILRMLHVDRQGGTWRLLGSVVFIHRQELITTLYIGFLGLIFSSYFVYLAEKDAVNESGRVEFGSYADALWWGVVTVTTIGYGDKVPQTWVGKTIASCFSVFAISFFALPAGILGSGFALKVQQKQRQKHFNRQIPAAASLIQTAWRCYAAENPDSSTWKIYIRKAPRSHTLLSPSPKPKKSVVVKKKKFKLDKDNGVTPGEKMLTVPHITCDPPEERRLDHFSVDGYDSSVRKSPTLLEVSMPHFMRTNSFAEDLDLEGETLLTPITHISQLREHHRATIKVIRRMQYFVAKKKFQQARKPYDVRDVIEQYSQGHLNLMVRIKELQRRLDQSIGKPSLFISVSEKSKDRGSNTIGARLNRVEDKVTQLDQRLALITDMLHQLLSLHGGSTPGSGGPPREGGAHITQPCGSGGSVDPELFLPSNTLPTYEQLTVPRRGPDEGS

[12] = molecular target: T2, A-type voltage-gated potassium channel KCND3 (Homo sapiens, UniProt Q9UK17); experiment: Inhibition of Kv4.3 in human atrial myocytes assessed as decrease in transient outward potassium current amplitude at 3 to 10 uM by whole cell patch clamp method; format: cell-based
T2 sequence (Q9UK17 whole entry): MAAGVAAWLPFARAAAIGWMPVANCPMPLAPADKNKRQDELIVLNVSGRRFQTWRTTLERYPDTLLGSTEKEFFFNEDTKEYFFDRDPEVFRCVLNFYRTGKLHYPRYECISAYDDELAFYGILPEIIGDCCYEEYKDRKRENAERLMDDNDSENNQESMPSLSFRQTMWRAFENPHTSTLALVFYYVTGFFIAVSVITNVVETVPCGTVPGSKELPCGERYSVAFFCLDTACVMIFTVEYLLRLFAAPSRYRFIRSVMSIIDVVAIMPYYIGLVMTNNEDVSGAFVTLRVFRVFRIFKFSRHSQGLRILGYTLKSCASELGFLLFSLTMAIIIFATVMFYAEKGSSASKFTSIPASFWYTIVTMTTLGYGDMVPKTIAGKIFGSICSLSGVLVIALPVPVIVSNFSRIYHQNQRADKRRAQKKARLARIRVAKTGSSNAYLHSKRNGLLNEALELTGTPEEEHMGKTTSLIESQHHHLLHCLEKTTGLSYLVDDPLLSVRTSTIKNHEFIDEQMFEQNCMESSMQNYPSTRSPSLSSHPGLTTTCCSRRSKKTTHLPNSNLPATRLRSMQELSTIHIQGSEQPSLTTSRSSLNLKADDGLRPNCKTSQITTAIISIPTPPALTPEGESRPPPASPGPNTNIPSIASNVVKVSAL

[13] = molecular target: T2, A-type voltage-gated potassium channel KCND3; experiment: Inhibition of Kv4.3 in human atrial myocytes assessed as recovery time constant of transient outward potassium current amplitude at 10 uM by whole cell patch clamp method (reference value: 102 +/- 12 ms); format: cell-based
Heart [14] = experiment: Effect on QTc interval in New Zealand white rabbit heart under hypokalemic conditions at 30 uM by electrocardiogram (reference value: 304.5 to 340.1 ms); format: ADME, Oryctolagus cuniculus
[15] = molecular target: T1, Voltage-gated potassium channel, IKs; KCNQ1(Kv7.1)/KCNE1(MinK); experiment: Inhibition of human KCNQ1/KCNE1 expressed in HEK293 cells assessed as decrease in current amplitude at 30 uM by whole cell patch clamp method; format: cell-based; settings: hek293, 30 µM
Cardiac muscle cell [16] = experiment: Increase in action potential duration at 90% repolarization in human atrial myocytes at 0.5 to 2 Hz at 10 uM by whole cell patch clamp method; format: functional, cell-based
[17] = molecular target: Potassium voltage-gated channel subfamily A member 5 (Homo sapiens) (UniProt P22460); experiment: Inhibition of Kv1.5 in human atrial myocytes assessed as decrease in ultra rapidly activating delayed rectifier potassium tail and step current amplitude at 3 to 30 uM by whole cell patch clamp method; format: cell-based
Sequence of Potassium voltage-gated channel subfamily A member 5 (Homo sapiens) (P22460 whole entry): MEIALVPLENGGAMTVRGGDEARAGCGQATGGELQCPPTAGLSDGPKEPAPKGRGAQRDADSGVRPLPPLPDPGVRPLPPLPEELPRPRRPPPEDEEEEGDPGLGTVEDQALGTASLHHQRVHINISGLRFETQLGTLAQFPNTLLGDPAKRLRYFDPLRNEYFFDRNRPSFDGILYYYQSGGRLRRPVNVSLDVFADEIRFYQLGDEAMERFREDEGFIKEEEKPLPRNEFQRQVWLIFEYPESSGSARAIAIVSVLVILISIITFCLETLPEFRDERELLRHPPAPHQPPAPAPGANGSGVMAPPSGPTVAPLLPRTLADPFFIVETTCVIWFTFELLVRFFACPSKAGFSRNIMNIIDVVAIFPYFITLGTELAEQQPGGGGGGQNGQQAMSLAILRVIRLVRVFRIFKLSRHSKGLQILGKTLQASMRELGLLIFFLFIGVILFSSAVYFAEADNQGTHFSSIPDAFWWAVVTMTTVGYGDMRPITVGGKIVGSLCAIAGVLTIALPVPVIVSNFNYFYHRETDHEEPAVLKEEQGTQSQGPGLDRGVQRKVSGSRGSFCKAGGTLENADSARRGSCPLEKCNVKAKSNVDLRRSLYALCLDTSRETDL

Cardiac muscle cell [18] = experiment: Increase in action potential duration at 50% repolarization in human atrial myocytes at 0.5 to 2 Hz at 10 uM by whole cell patch clamp method; format: functional, cell-based
Canis familiaris [19] = experiment: Anti-atrial fibrillation activity in bilateral vagal stimulated anesthetized dog assessed as time duration of atrial fibrillation at 100 ms of basic cycle length at 5 mg/kg administered intraduodenally measured after 2 hrs; format: functional, Canis lupus familiaris
[20] = molecular target: T1, Voltage-gated potassium channel, IKs; KCNQ1(Kv7.1)/KCNE1(MinK); experiment: Inhibition of human KCNQ1/KCNE1 expressed in HEK293 cells assessed as decrease in current amplitude at +20 to +60 mV by whole cell patch clamp method; format: cell-based
[21] = molecular target: Potassium voltage-gated channel subfamily A member 5 (Homo sapiens) (UniProt P22460); experiment: Inhibition of Kv1.5 in human atrial myocytes assessed as decrease in ultra rapidly activating delayed rectifier potassium current amplitude at 40 mV by whole cell patch clamp method; format: cell-based
[22] = molecular target: Potassium voltage-gated channel subfamily A member 5 (Homo sapiens) (UniProt P22460); experiment: Inhibition of Kv1.5 in human atrial myocytes assessed as decrease in ultra rapidly activating delayed rectifier potassium current amplitude at 3 uM after 8 mins by whole cell patch clamp method; format: cell-based
Mus musculus [23] = experiment: Acute toxicity in Kunming mouse assessed as abnormal activity at 0.3 g/kg, po administered every 1.5 hrs for 3 times measured for 2 weeks relative to vehicle-treated control; format: organism-based; settings: in vivo, 300 mg/kg, 336 h
[24] = Effect on amplitude of action potential in human atrial myocytes at 5 to 10 uM by whole cell patch clamp method; format: cell-based; settings: cardiac muscle cell
[25] = molecular target: Voltage-gated inwardly rectifying potassium channel KCNH2 (Homo sapiens, UniProt Q12809); experiment: Inhibition of human ERG expressed in HEK293 cells assessed as decrease in current amplitude at 30 uM by whole cell patch clamp method; format: cell-based; settings: hek293, 30 µM
Sequence of Voltage-gated inwardly rectifying potassium channel KCNH2 (Q12809 whole entry): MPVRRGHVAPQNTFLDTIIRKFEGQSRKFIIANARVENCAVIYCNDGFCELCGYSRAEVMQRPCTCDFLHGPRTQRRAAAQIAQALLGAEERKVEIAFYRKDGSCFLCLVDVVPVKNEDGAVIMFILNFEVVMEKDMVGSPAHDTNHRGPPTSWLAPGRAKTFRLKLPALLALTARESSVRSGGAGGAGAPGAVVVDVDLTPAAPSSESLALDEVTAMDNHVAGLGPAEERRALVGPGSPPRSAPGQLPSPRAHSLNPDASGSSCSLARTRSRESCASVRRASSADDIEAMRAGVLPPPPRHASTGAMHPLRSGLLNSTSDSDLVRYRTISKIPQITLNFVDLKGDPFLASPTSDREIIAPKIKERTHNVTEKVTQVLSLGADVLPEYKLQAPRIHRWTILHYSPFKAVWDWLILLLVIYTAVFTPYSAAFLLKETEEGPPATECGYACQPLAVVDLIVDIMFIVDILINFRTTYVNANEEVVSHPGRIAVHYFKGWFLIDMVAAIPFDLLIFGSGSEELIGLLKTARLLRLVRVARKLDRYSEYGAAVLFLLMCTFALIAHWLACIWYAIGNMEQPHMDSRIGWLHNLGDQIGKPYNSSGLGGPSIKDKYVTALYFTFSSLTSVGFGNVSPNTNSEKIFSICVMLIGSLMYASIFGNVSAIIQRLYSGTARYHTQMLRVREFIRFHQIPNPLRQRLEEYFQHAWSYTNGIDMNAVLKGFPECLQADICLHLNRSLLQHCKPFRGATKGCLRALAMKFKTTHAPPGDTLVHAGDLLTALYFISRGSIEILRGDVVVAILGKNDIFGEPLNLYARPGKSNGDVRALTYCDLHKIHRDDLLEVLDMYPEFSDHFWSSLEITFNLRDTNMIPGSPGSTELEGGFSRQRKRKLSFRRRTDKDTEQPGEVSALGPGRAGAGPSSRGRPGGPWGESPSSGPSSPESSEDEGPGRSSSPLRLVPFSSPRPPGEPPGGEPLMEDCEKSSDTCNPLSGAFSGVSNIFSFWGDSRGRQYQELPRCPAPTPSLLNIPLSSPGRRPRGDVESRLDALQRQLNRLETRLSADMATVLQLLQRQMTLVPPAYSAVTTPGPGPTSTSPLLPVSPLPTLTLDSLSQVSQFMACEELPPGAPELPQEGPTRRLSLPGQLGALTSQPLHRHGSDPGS

Heart [26] = experiment: Effect on heart rate in New Zealand white rabbit heart under hypokalemic conditions at 30 uM by electrocardiogram (reference value: 157 to 175 /min); format: ADME, tissue-based, Oryctolagus cuniculus
Cavia porcellus = organism: Cavia porcellus; experiment: Inhibition of acetylcholine-activated potassium channel in guinea pig atrial myocytes assessed as reversal of carbachol-induced membrane conductance at 3 uM by whole cell patch clamp method; format: cell-based

## Nc1ccncc1
Cardiac muscle cell [1]
  Activity: Active
Cardiac muscle cell [2]
  Activity: Active
Cardiac muscle cell [3]
  Activity: Active

## COc1ccc(-c2cc(=O)c3c(O)cc(O)cc3o2)cc1 [ACACETIN]
Cardiac muscle cell [4]
  Activity: Active
Canis familiaris [5]
  Activity: 10 - 25%
Canis familiaris [6]
  Activity: Non-Toxic
Mus musculus [7]
  Activity: Non-Toxic
Canis familiaris [8]
  Time: 4.3 to 7.11 min
[9]
  Activity: Non-Toxic
Cardiac muscle cell [10]
  Activity: Active
[11]
  Activity: 83%
[12]
  inhibition (INH): Active
[13]
  Time: 136 ms
Heart [14]
  Time: 308.7 ms
[15]
  inhibition (INH): Active
Cardiac muscle cell [16]
  Activity: Active
[17]
  inhibition: Active
Cardiac muscle cell [18]
  Activity: Active
Canis familiaris [19]
  Time: 5.31 to 6.12 min
[20]
  inhibition (INH): Dose-dependent effect
[21]
  inhibition: Dose-dependent effect
[22]
  inhibition: Active
Mus musculus [23]
  Activity: Non-Toxic
[24]
  Activity: Non-Toxic
[25]
  inhibition (INH): Active
Heart [26]
  Activity: 156 bpm
Cavia porcellus
  inhibition: Active

## CC(C)NCC(O)c1ccc(NS(C)(=O)=O)cc1 (centres undefined) [SOTALOL]
Canis familiaris [6]
  Activity: Toxic
Canis familiaris [19]
  Time: 8.5 min
